Consider 4 compounds from ChEMBL document CHEMBL1121560, “Synthesis and biological activity of 5-fluoro-2'-deoxyuridine 5'-phosphorodiamidates” (J Med Chem, 1980).

The target in data set [1] is T1, Thymidylate synthase (Lactobacillus casei) (UniProt P00469).
T1 sequence (whole entry): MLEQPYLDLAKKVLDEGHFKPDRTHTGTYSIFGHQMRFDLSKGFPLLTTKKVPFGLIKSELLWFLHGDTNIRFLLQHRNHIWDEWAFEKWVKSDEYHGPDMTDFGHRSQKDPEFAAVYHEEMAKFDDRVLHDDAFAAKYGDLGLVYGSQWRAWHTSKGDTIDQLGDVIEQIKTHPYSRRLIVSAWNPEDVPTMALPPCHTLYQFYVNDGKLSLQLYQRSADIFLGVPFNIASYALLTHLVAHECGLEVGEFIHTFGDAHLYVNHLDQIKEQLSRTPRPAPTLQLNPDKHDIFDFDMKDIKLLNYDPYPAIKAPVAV
As to the kind of experiment: Compound was tested for its inhibition against Thymidylate synthase up to concentration of 1 mM; IA means inactive. The conditions noted are these: Lacticaseibacillus casei.

A short description of data set [2]: Half-life for hydrolysis to 5-fluoro-2'-deoxyuridine-5'-phosphate at 65 degree Centigrade. The class given is ADME.
The test system of data set [3] is L5178Y. As to the kind of experiment: In vitro percent inhibition at 10 e-8 M against L5178Y cell growth after 72 hr (replicate flasks inoculated with 10 e5 cells were treated with the nucleotide). Type of data set: functional. Particulars: Mus musculus.
In data set [4] the test system is L5178Y. The data set is described as follows: (§1) Half-life for hydrolysis to 5-fluoro-2'-deoxyuridine-5'-phosphate at 100 degree Centigrade. The class given is functional. The conditions noted are these: Mus musculus.
Data set [5] is described as follows: Half-life for hydrolysis to 5-fluoro-2'-deoxyuridine-5'-phosphate at […] Centigrade. Type of data set: ADME.
Data set [6] is described as follows: as §1. Type of data set: ADME.
Data set [7] has as its system L5178Y. As to the kind of experiment: Comparative inhibition of L5178Y cell growth in vitro (concentration required for 50% inhibition). Particulars: Mus musculus. The class given is functional, cell-based.

Molecules are shown by their SMILES. The source made the active and inactive calls. The calls are words filed in the database; no cut-off is given here.

Turning to `O=c1[nH]c(=O)n([C@H]2C[C@H](O)[C@@H](COP(=O)(N3CCOCC3)N3CCOCC3)O2)cc1F`, the inhibition result in data set [1] was “inactive”. Moreover, the half-life in data set [2] was 240 h. Also, in the data set on L5178Y [3], the inhibition at 0.01 µM was 11%. In addition, the T1/2 with L5178Y [4] is 100 h.

With `NP(N)(=O)OC[C@H]1O[C@@H](n2cc(F)c(=O)[nH]c2=O)C[C@@H]1O`, the inhibition entry in data set [1] was “inactive”. Also, in the data set with L5178Y [3], the inhibition at 0.01 µM was found to be 45%. Also, the half-life in data set [5] was 0.25 h; in data set [6], 3.9 h. Further, the IC50 in the data set with L5178Y [7] amounted to 2 nM.

As to `O=c1[nH]c(=O)n([C@H]2C[C@H](O)[C@@H](COP(=O)(O)O)O2)cc1F` [5-FLUORODEOXYURIDYLATE], in data set [1], the inhibition result was “inactive”. The same compound gave an inhibition at 0.01 µM with L5178Y [3] of 67%. Besides, in the data set with L5178Y [7], it took 1.4 nM to reach half-maximal inhibition (IC50).

With `O=c1[nH]c(=O)n([C@H]2C[C@H](O)[C@@H](CO)O2)cc1F` [FLOXURIDINE], in data set [1], the inhibition result was “inactive”. In the data set on L5178Y [7], this compound registered an IC50 of 0.76 nM.

For orientation: inhibition means the relative decrease from the control value, in per cent. One may read the half-life as how long it takes for the measured level to halve. As usually defined, the IC50 is the concentration that inhibits the measured activity by half. A low value points to greater potency.
